“And” between values parts separate entries of the source, which are not always exact repeats. Identical values can stand only once.
Columns and labels:
[1] = system: experimentally induced large B-cell lymphoma; assay: Therapeutic efficacy in mice with experimentally induced large B-cell lymphoma (blood tests, LDH, body weight, autopsy); type: in vivo; design: Lymphocytes: unit not given here; conditions: for LDH: blood plasma; for Total protein: blood serum; for Lymphocytes: blood
Description: Investigations were carried out on immunocompromised laboratory mice with experimentally-induced large B-cell lymphoma using hematological, immunological, biochemical, anatomical, and cytological methods. Two groups of 15 mice were employed. In the first group, 24-ethyl-cholestane-3β,5α,6α-triol was administered orally daily at a dosage of 5 mg/kg. The second group served as the control. The following parameters of therapeutic efficacy were compared: dynamics of LDH activity in the blood plasma, content of total protein, and general clinical blood test results.
As is seen from Table 2, statistically important differences (P<0.05) between animals with lymphoma and healthy animals were marked by the amount of leukocytes, hemoglobin, by color indication, the absolute number of lymphocytes in blood, as well as the content of total protein in the blood serum and the LDH activity in blood plasma. These changes characterize the presence of disorders in the lymphoid component of blood formation, indicate the presence of intensive cytolysis in the process of carcinogenesis (due to increased LDH), and show the presence of processes suppressing biosynthesis of protein.
The total content of protein in the blood serum and the hemoglobin concentration are increased. At the same time, a decrease in LDH activity in the blood plasma and in the number of lymphocytes was observed (FIG. 5).

[2] = system: human tumor cell line: squamous-cell carcinoma of the lung; assay: Human tumor cell lines in immunocompromised mice (intraperitoneal, ascitis): squamous lung; type: in vivo; conditions: treated mice (4, 2 and 0.8 mg/kg/day orally for 10 days)
Description: (§1) Immunocompromised mice were used for this experiment. Mice were inbred in a sterile environment and fed ad libitum. Four groups of 40 mice, weighing approximately 20 g each (range: 17-25 g), were used for each tumor type. The human tumor cell lines used were the following: large B-cell lymphoma; squamous-cell carcinoma of the lung; ductal carcinoma breast; and adenocarcinoma of the lung. A suspension of tumor cells was injected in the peritoneum of immunocompromised mice. Following this, mice were examined and weighed daily. After 6-8 days, we observed the development of abdominal carcinomatosis and […]. At day 18, we observed the development of an abundant […], which increased the weight of the mice by approximately 20 g. At that time, mice were divided into four groups of 10. […] Assessment of tumor cell concentration in the […] abdominal metastases were measured on day 18 and every 2 days thereafter. In all mice, prior to treatment, we observed an increase in LDH ESR (>100) and a decrease in the hematocrit. Control (untreated) mice all died between day 21 and day 25 in all tumor types. […] Complete response: Weight (and ascetic) loss and the disappearance of all abdominal metastatic nodules and tumor cells. Partial response: Weight (and ascitic) loss and at least 25% decrease of tumor cell in the […] least 25% decrease in measured abdominal metastatic nodules. […] Progressive disease: When we observed an increase in […] or tumor volume or death of the animal.

[3] = system: human tumor cell line: adenocarcinoma of the lung; assay: Human tumor cell lines in immunocompromised mice (intraperitoneal, ascitis): lung adenocarcinoma; type: in vivo; conditions: treated mice (4, 2 and 0.8 mg/kg/day orally for 10 days)
Description: as §1

[4] = system: uterine cancer stage IIB; assay: Patient case: recurrent uterine cancer; type: in vivo, human; conditions: 60 mg/day, within three months; recurrent 3.2 cm pelvic mass before
Text: A patient presented with uterine cancer stage IIB. They previously received cisplatin-based chemotherapy and radiotherapy. […] A cervical biopsy confirms the recurrence. […] Within three months, the tumor had disappeared on clinical exam and abdomino-pelvic CT scan.

[5] = system: lung large-cell adenocarcinoma metastatic to liver; assay: Patient case: lung large-cell adenocarcinoma metastatic to liver; type: in vivo, human; design: LDH: unit not given beside the values
Text: A patient was diagnosed with a lung large-cell adenocarcinoma metastatic to liver. They received chemotherapy with no success. […] They also had frequent hemoptysis and elevated LDH, GGT, and bilirubin. The course of the patient's biologic parameters during treatment are depicted in Table 7.

[6] = system: breast cancer stage IV with lung and bone metastases; assay: Patient case: breast cancer stage IV with lung and bone metastases, CA 15-3; type: in vivo, human; conditions: for CA 15-3: Femara, Decapeptyl
Text: A patient presented with breast cancer stage IV with lung and bone metastases. They previously underwent a left radical mastectomy for a stage 2 colloidal mucinous adenocarcinoma Hormone receptors and c-erb B were negative. They received adjuvant chemotherapy (FAC) followed by radiotherapy. Later, a sternal bone metastasis appeared and was resected. […] They also developed lung metastases up to 4 cm size. They received chemotherapy with taxotere, navelbine, and pamidronate, followed by tamoxifen. This treatment gave an almost complete response in the lungs. Tamoxifen was replaced by Femara. The patient received radiotherapy on the spine (T4 and T1 2) and Zometa is administered along with Femara. […] Zometa and Femara were continued and Decapeptyl was added to the treatment.

[7] = system: pancreatic adenocarcinoma; assay: Patient case: pancreatic adenocarcinoma, CA 19-9; type: in vivo, human; design: CA 19-9: unit not given beside the values
Text: A diabetic and insulin dependent patient with a past history of lymphoma presented with a 3 cm tumor in the head of pancreas and a suspicion of hepatic metastasis.

[8] = system: experimentally induced large B-cell lymphoma; assay: Therapeutic efficacy in mice with experimentally induced large B-cell lymphoma (blood tests, LDH, body weight, autopsy); type: in vivo; conditions: second treated group; M (arithmetic mean of 3 animals)
[9] = 5 mg/kg orally daily, course of treatment
[10] = first treated group, M (arithmetic mean of 3 animals)
[11] = first treated group, individual animals
[12] = second treated group, M (arithmetic mean of 3 animals)
[13] = second treated group, individual animals
[14] = third treated group, M (arithmetic mean of 4 animals)
[15] = third treated group, individual animals

## CC[C@H](CC[C@@H](C)[C@H]1CC[C@H]2[C@@H]3C[C@H](O)[C@@]4(O)C[C@@H](O)CC[C@]4(C)[C@H]3CC[C@]12C)C(C)C [24-ethyl-cholestane-3β,5α,6α-triol]
[1]; [9]
  hemoglobin concentration: increased
  number of lymphocytes: decrease
  total content of protein in the blood serum: increased
[1]; 5 mg/kg orally daily, sixteen days
  autopsy: liver, kidney and spleen tissues, treated animals with lymphoma vs healthy mice: no differences
[1]; [10]
  LDH: 962.00 U/L
  Total protein: 53.63 g/L
  Lymphocytes: 9.15
  Body, weight: 18.04 g
  neutrophiles/lymphocytes: 0.28
[1]; [11]
  LDH: 1056 U/L and 974 U/L and 856 U/L
  Total protein: 51.5 g/L and 52.6 g/L and 56.8 g/L
  Body, weight: 18.27 g and 17.86 g and 18.00 g
[1]; [12]
  LDH: 749.7 U/L
  Total protein: 54.73 g/L
  Lymphocytes: 7.523
  Body, weight: 18.2 g
[1]; [13]
  LDH: 698 U/L and 753 U/L and 798 U/L
  Total protein: 52.9 g/L and 54.5 g/L and 56.8 g/L
  Body, weight: 18.28 g and 18.36 g and 17.97 g
[1]; [14]
  LDH: 673 U/L
  Total protein: 57.625 g/L
  Lymphocytes: 7.464
  Body, weight: 18.3775 g
  neutrophiles/lymphocytes: 0.3255
[1]; [15]
  LDH: 759 U/L and 583 U/L and 697 U/L and 653 U/L
  Total protein: 56.5 g/l (2×) and 57.8 g/l and 59.7 g/l
  Body, weight: 18.53 g and 18.12 g and 18.26 g and 18.60 g
[1]; by the sixteenth day of treatment, some animals
  LDH level in some animals: reached the level of healthy animals
[1]; day 16, treated vs untreated diseased mice
  Body, weight: tendency to a gain in mass
[1]; diseased mice, 5 mg/kg orally daily, by the sixteenth day of treatment
  decrease of LDH activity in blood plasma: 42.3%
[2]
  Complete Remission: 50%
  Partial Remission: 30%
  Progressive Disease: 0%
  Stable Disease: 20%
  Symptomatic Response: 100%
[3]
  Complete Remission: 40%
  Partial Remission: 20%
  Progressive Disease: 10%
  Stable Disease: 30%
  Symptomatic Response: 100%
[4]
  tumor on clinical exam and abdomino-pelvic CT scan: disappeared
[5]; Day 11, 70 mg/day, Day 0 prior to treatment 2560 (nl < 480)
  LDH: 2264
[5]; Day 30, 70 mg/day
  LDH: 283
[5]; Day 63, 70 mg/day
  LDH: 118
[5]; Day 63, 70 mg/day, Day 0 prior to treatment 1.9 (nl < 1)
  Total Bilirubin: 0.42
[5]; Day 85, 70 mg/day
  LDH: 230
  Total Bilirubin: 0.37
[5]; during treatment, 70 mg/day
  GGT: 31
[5]; more than a year after commencement of therapy
  CT scans, masses in the lungs and liver: decrease in number and size of previous masses
[6]; Month 5, 60 mg/day with Zometa, Month 0 prior to treatment 277 (nl < 35)
  CA 15-3: 156 U
[6]; Month 6, 60 mg/day with Zometa
  CA 15-3: 85 U and 52 U
[6]; Month 14, 60 mg/day with Zometa
  CA 15-3: 24 U
[6]; Month 16, 60 mg/day with Zometa
  CA 15-3: 19.5 U
[6]; two weeks after the beginning of LC
  symptoms: totally asymptomatic
[7]; Day 1, 50 mg/day, Day 0 prior to treatment 884 (nl < 37)
  CA 19-9: 793
[7]; Day 32, 50 mg/day
  CA 19-9: 675
[7]; Day 59, 50 mg/day (dose then increased to 60 mg/day)
  CA 19-9: 1127
[7]; Day 128, 60 mg/day
  CA 19-9: 545
[7]; Day 200 of therapy, 3 cm tumor in the head of pancreas before
  CT scan of the abdomen, pancreas: no masses seen
[8]
  neutrophiles/lymphocytes: 0.3024

From patent publication US8293726B2, “Treatment of cancer and other diseases” (Vianova Labs, Inc., priority 2005, dated 2012)
